Data: article PMC6120666 (The EMBO Journal, 2018)

Assays:
Assay in all cases: Drug affinity chromatography with c-ponatinib and LC-MS/MS (ponatinib interactome)
Format in all cases: binding
[1] = biological target: T1, proteins of U2OS cell lysate (Homo sapiens, UniProt P29692); conditions: EEF1D, Elongation factor 1-delta
T1 construct: Proteins enriched by c-ponatinib from U2OS cell lysate; endogenous in cells; host or cells: U2OS cell lysate
Outline: (§1)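 Proteins were identified by nano-UPLC–MS/MS after elution with formic acid and trypsin digestion. They were captured from U2OS lysate (2 mg protein per pulldown, NP-40 buffer) on amine-coupled NHS beads during a 2 h incubation at 4 °C.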

[2] = biological target: T2, proteins of U2OS cell lysate (Homo sapiens, UniProt P49773); conditions: HINT1, Histidine triad nucleotide-binding protein 1
T2 construct: Proteins enriched by c-ponatinib from U2OS cell lysate; endogenous in cells; host or cells: U2OS cell lysate
Outline: as §1

[3] = biological target: T3, proteins of U2OS cell lysate (Homo sapiens, UniProt Q9BSJ8); conditions: ESYT1, Extended synaptotagmin-1
T3 construct: Proteins enriched by c-ponatinib from U2OS cell lysate; endogenous in cells; host or cells: U2OS cell lysate
Outline: as §1

[4] = biological target: T4, proteins of U2OS cell lysate (Homo sapiens, UniProt P08238); conditions: HSP90AB1, Heat shock protein HSP 90-beta
T4 construct: Proteins enriched by c-ponatinib from U2OS cell lysate; endogenous in cells; host or cells: U2OS cell lysate
Outline: as §1

[5] = biological target: T5, proteins of U2OS cell lysate (Homo sapiens, UniProt P04792); conditions: HSPB1, Heat shock protein beta-1
T5 construct: Proteins enriched by c-ponatinib from U2OS cell lysate; endogenous in cells; host or cells: U2OS cell lysate
Outline: as §1

[6] = biological target: T6, proteins of U2OS cell lysate (Homo sapiens, UniProt P51572); conditions: BCAP31, B-cell receptor-associated protein 31
T6 construct: Proteins enriched by c-ponatinib from U2OS cell lysate; endogenous in cells; host or cells: U2OS cell lysate
Outline: as §1

[7] = biological target: T7, proteins of U2OS cell lysate (Homo sapiens, UniProt P60174); conditions: TPI1, Triosephosphate isomerase
T7 construct: Proteins enriched by c-ponatinib from U2OS cell lysate; endogenous in cells; host or cells: U2OS cell lysate
Outline: as §1

[8] = biological target: T8, proteins of U2OS cell lysate (Homo sapiens, UniProt Q96MW5); conditions: COG8, Conserved oligomeric Golgi complex subunit 8
T8 construct: Proteins enriched by c-ponatinib from U2OS cell lysate; endogenous in cells; host or cells: U2OS cell lysate
Outline: as §1

[9] = biological target: T9, proteins of U2OS cell lysate (Homo sapiens, UniProt P16615); conditions: ATP2A2, Sarcoplasmic/endoplasmic reticulum calcium ATPase 2
T9 construct: Proteins enriched by c-ponatinib from U2OS cell lysate; endogenous in cells; host or cells: U2OS cell lysate
Outline: as §1

[10] = biological target: T10, proteins of U2OS cell lysate (Homo sapiens, UniProt O00410); conditions: IPO5, Importin-5
T10 construct: Proteins enriched by c-ponatinib from U2OS cell lysate; endogenous in cells; host or cells: U2OS cell lysate
Outline: as §1

[11] = biological target: T11, proteins of U2OS cell lysate (Homo sapiens, UniProt P62491); conditions: RAB11A;RAB11B, Ras-related protein Rab-11A
T11 construct: Proteins enriched by c-ponatinib from U2OS cell lysate; endogenous in cells; host or cells: U2OS cell lysate
Outline: as §1

[12] = biological target: T12, proteins of U2OS cell lysate (Homo sapiens, UniProt P38646); conditions: HSPA9, Stress-70 protein, mitochondrial
T12 construct: Proteins enriched by c-ponatinib from U2OS cell lysate; endogenous in cells; host or cells: U2OS cell lysate
Outline: as §1

[13] = biological target: T13, proteins of U2OS cell lysate (Homo sapiens, UniProt P35998); conditions: PSMC2, 26S protease regulatory subunit 7
T13 construct: Proteins enriched by c-ponatinib from U2OS cell lysate; endogenous in cells; host or cells: U2OS cell lysate
Outline: as §1

[14] = biological target: T14, proteins of U2OS cell lysate (Homo sapiens, UniProt O14818); conditions: PSMA7;PSMA8, Proteasome subunit alpha type-7
T14 construct: Proteins enriched by c-ponatinib from U2OS cell lysate; endogenous in cells; host or cells: U2OS cell lysate
Outline: as §1

[15] = biological target: T15, proteins of U2OS cell lysate (Homo sapiens, UniProt Q16854); conditions: DGUOK, Deoxyguanosine kinase, mitochondrial
T15 construct: Proteins enriched by c-ponatinib from U2OS cell lysate; endogenous in cells; host or cells: U2OS cell lysate
Outline: as §1

[16] = biological target: T16, proteins of U2OS cell lysate (Homo sapiens, UniProt P28070); conditions: PSMB4, Proteasome subunit beta type-4
T16 construct: Proteins enriched by c-ponatinib from U2OS cell lysate; endogenous in cells; host or cells: U2OS cell lysate
Outline: as §1

[17] = biological target: T17, proteins of U2OS cell lysate (Homo sapiens, UniProt P24534); conditions: EEF1B2, Elongation factor 1-beta
T17 construct: Proteins enriched by c-ponatinib from U2OS cell lysate; endogenous in cells; host or cells: U2OS cell lysate
Outline: as §1

[18] = biological target: T18, proteins of U2OS cell lysate (Homo sapiens, UniProt Q15149); conditions: PLEC, Plectin
T18 construct: Proteins enriched by c-ponatinib from U2OS cell lysate; endogenous in cells; host or cells: U2OS cell lysate
Outline: as §1

[19] = biological target: T19, proteins of U2OS cell lysate (Homo sapiens, UniProt Q9UHB6); conditions: captured protein LIMA1, Rank 120
T19 construct: Proteins enriched by c-ponatinib from U2OS cell lysate; endogenous in cells; host or cells: U2OS cell lysate
Outline: as §1

T5 sequence (P04792 whole entry): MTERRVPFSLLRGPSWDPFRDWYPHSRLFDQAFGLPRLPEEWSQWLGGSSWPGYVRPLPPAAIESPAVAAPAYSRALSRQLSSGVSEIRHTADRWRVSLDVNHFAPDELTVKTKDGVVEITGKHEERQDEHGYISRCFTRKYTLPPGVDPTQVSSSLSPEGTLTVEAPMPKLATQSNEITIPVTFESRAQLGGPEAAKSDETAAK
T6 sequence (P51572 whole entry): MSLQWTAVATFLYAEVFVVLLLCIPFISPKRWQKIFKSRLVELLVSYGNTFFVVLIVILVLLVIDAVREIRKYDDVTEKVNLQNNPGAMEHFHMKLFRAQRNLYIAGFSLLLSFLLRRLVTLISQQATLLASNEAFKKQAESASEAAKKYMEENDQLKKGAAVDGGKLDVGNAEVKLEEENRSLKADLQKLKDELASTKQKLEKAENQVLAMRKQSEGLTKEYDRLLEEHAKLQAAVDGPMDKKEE
T10 sequence (O00410 whole entry): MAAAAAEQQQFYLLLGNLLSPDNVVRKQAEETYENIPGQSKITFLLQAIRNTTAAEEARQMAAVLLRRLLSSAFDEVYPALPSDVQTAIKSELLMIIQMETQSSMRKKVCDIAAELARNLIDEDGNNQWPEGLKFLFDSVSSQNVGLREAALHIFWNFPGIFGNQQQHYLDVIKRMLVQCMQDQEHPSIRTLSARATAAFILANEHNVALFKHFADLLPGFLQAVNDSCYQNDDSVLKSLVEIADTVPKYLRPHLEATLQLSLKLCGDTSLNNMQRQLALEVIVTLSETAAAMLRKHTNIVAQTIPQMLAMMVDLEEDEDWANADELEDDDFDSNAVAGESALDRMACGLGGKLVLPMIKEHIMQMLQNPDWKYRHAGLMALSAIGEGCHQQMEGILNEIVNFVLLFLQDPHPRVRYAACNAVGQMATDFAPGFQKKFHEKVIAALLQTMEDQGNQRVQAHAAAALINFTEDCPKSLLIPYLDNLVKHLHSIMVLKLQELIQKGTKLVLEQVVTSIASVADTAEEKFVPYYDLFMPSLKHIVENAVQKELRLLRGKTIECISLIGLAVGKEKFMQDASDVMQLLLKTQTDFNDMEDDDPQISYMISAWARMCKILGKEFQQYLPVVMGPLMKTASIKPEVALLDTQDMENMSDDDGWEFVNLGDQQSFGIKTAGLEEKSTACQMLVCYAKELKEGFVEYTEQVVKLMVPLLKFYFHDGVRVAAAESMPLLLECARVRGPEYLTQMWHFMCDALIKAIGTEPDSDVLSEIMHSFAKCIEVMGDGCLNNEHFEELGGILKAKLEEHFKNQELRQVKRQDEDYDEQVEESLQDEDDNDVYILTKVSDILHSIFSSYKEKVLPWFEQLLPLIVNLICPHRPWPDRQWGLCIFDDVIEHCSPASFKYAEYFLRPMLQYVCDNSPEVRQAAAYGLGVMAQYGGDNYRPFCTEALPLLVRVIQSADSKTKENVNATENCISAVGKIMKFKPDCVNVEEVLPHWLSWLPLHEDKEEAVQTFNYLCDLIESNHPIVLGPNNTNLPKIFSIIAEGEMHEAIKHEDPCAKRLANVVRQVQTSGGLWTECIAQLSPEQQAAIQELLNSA
T11 sequence (P62491 whole entry): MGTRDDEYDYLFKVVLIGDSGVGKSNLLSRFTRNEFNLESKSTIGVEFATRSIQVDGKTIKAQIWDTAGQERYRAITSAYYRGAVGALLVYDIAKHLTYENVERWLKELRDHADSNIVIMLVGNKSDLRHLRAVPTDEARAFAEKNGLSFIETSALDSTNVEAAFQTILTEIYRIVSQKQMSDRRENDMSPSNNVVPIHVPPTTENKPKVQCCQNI
T17 sequence (P24534 whole entry): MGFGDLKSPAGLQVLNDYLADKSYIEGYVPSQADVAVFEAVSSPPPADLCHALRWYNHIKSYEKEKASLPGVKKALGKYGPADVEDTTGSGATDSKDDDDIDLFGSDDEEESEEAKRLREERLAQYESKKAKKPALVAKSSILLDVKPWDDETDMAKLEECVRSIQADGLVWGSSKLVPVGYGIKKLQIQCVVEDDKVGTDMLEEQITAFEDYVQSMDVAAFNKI
T14 sequence (O14818 whole entry): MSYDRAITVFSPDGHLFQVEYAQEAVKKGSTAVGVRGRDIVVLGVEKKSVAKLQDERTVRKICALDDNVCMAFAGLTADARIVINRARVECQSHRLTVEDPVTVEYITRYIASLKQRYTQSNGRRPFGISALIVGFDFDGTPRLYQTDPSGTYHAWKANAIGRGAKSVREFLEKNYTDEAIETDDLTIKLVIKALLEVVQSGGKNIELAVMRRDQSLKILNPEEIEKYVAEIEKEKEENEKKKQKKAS
T4 sequence (P08238 whole entry): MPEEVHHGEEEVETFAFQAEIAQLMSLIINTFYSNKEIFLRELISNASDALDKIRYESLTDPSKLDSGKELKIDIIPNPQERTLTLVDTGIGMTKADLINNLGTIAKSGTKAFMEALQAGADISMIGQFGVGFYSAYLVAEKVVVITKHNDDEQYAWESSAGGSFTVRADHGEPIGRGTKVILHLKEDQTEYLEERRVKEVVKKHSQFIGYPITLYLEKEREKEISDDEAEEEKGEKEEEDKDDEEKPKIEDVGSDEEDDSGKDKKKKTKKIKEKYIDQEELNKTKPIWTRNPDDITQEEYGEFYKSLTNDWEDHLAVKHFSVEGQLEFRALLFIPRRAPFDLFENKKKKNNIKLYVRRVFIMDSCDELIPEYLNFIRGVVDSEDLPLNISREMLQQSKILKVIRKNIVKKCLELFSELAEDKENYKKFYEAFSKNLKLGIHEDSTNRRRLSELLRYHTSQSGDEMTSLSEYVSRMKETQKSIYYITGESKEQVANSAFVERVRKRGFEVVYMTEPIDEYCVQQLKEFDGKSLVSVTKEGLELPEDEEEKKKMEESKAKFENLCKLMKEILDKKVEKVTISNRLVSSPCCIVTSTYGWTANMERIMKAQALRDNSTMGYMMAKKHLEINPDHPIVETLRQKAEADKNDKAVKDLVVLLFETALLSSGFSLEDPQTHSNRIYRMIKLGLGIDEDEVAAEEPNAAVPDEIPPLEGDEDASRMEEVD
T16 sequence (P28070 46-264): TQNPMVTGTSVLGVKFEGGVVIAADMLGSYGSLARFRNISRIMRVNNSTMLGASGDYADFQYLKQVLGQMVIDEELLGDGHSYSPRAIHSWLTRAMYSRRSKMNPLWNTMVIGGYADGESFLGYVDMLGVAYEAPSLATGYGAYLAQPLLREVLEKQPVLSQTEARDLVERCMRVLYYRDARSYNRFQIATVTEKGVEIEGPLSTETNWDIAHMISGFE
T1 sequence (P29692 whole entry): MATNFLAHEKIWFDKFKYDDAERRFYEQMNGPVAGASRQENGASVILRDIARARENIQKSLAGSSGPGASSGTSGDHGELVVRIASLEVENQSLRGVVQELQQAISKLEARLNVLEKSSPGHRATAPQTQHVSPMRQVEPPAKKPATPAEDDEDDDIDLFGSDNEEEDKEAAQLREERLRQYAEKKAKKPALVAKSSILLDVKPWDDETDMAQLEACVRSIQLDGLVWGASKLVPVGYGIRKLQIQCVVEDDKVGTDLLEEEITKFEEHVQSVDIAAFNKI
T13 sequence (P35998 whole entry): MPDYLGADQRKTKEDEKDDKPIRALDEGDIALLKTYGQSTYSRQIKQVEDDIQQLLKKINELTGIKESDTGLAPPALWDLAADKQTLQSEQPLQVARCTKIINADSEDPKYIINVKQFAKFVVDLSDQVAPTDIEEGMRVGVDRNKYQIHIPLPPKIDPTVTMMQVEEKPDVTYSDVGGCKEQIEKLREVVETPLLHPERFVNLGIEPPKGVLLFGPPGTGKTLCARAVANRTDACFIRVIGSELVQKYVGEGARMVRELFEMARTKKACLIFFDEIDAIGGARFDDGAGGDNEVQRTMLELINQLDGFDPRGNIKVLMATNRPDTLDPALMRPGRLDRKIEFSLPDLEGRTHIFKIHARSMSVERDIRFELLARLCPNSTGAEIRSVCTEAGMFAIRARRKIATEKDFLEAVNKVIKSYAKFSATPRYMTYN
T2 sequence (P49773 whole entry): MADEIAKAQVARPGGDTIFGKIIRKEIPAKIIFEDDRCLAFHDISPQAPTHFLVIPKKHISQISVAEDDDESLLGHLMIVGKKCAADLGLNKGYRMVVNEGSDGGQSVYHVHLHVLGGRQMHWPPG
T7 sequence (P60174 whole entry): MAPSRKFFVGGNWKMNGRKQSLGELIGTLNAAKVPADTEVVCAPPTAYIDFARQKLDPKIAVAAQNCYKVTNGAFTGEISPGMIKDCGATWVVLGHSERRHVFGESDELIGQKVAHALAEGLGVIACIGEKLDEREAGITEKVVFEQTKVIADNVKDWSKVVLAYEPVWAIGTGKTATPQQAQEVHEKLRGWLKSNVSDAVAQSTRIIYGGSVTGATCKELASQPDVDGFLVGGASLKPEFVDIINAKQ
T8 sequence (Q96MW5 whole entry): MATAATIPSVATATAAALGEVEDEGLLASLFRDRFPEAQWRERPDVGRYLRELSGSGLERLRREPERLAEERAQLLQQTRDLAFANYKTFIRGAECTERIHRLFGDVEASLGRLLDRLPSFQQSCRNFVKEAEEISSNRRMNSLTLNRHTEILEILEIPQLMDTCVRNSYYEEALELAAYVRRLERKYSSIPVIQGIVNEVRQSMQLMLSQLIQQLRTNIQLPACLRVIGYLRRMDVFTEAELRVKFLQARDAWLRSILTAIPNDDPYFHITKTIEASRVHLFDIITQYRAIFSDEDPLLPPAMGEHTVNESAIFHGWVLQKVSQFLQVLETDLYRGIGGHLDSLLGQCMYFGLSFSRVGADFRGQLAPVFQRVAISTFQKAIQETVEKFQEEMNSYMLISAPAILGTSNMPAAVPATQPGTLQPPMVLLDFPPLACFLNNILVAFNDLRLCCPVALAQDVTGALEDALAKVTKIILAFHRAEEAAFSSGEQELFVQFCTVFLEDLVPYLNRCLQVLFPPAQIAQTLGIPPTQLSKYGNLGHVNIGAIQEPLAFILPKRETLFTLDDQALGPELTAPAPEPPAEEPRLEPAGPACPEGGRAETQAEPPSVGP

SMILES: Cc1ccc(C(=O)Nc2ccc(CN3CCN(C)CC3)c(C(F)(F)F)c2)cc1C#Cc1cnc2cccnn12 [PON]
- Average LFQ PON_WT [1]: 24.6531
- Average LFQ PON_WT [2]: 21.3958
- Average LFQ PON_WT [3]: 18.8901
- Average LFQ PON_WT [4]: 24.5074
- Average LFQ PON_WT [5]: 25.081
- Average LFQ PON_WT [6]: 23.9511
- Average LFQ PON_WT [7]: 20.2344
- Average LFQ PON_WT [8]: 20.9378
- Average LFQ PON_WT [9]: 20.9825
- Average LFQ PON_WT [10]: 21.1425
- Average LFQ PON_WT [11]: 22.3634
- Average LFQ PON_WT [12]: 24.6608
- Average LFQ PON_WT [13]: 21.2631
- Average LFQ PON_WT [14]: 22.0977
- Average LFQ PON_WT [15]: 23.2666
- Average LFQ PON_WT [16]: 21.0941
- Average LFQ PON_WT [17]: 23.7043
- Average LFQ PON_WT [18]: 27.1637

SMILES: Cc1ccc(C(=O)Nc2ccc(CN3CCN(CCCN)CC3)c(C(F)(F)F)c2)cc1C#Cc1cnc2cccnn12 [c-ponatinib, reference compound]
- Average LFQ intensity [19]: 23.0824
